The text below walks through data of PubChem BioAssay (NCI).

Some test systems named below: CAKI-1 renal; SN12C renal; NCI-H23 lung; CCRF-CEM leukemia; SNB-19 CNS; SF-295 CNS; IGROV1 ovarian; M14 melanoma; K-562 leukemia; TK-10 renal.
What all share (experiment): NCI tumour cell line growth inhibition, 48 h

Molecules are shown by their SMILES.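 Growth conditions: 96-well plates. Treatment: test compound, 48 hours, 5 concentrations. Analysis: linear interpolation between bracketing concentrations; unreached endpoints set to highest concentration. GI50: concentration for 50% inhibition of growth. The concentration for full growth arrest is given as TGI.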 Some results are limits rather than exact numbers.

On to `COc1ccc(O)c(C(=O)c2ccc(C(=O)O[C@@H]3CCCNC[C@H]3NC(=O)c3ccncc3)cc2)c1F`, for which the GI50 with CAKI-1 renal is 0.543 µM; in the experiment on SN12C renal it was 1.34 µM; in the experiment with NCI-H23 lung it was 1.91 µM; in the experiment on CCRF-CEM leukemia it was 0.313 µM; in the experiment on SNB-19 CNS, 1.9 µM; in the experiment with SF-295 CNS, 0.77 µM. For the same molecule, the GI50 in the experiment with IGROV1 ovarian was 0.493 µM; in the experiment with M14 melanoma, 1.2 µM; in the experiment with K-562 leukemia, 0.723 µM; with TK-10 renal, 3.51 µM. Further, the TGI is over 25 µM in the experiment with CAKI-1 renal; over 25 µM in the experiment with SN12C renal; over 25 µM with NCI-H23 lung; over 6.03 µM with CCRF-CEM leukemia; over 25 µM in the experiment with SNB-19 CNS; over 25 µM in the experiment with SF-295 CNS. Moreover, the TGI with IGROV1 ovarian, in the experiment on M14 melanoma, in the experiment on K-562 leukemia and in the experiment on TK-10 renal was over 25 µM in each case.
On to `COCCOC(=O)C1=C(C)NC2=C(C(=O)CC(c3ccccc3OC)C2)C1c1cccc(O)c1` (stereo not given), for which the GI50 is 4.43 µM in the experiment on CAKI-1 renal; 21.7 µM in the experiment on SN12C renal; 14.7 µM with NCI-H23 lung; 11.3 µM with CCRF-CEM leukemia; 16 µM in the experiment on SNB-19 CNS; 11.5 µM with SF-295 CNS. The GI50 is 9.54 µM in the experiment with IGROV1 ovarian, 11.8 µM in the experiment on M14 melanoma, 7.97 µM with K-562 leukemia and 4.26 µM in the experiment with TK-10 renal. The TGI in the experiment with CAKI-1 renal is 31.3 µM; in the experiment with SN12C renal, over 100 µM; in the experiment with NCI-H23 lung, 56.6 µM; in the experiment with CCRF-CEM leukemia it was 83.6 µM; with SNB-19 CNS, over 100 µM; with SF-295 CNS, 35.2 µM. The TGI in the experiment with IGROV1 ovarian is 52.4 µM; with M14 melanoma, 39.5 µM; with K-562 leukemia it was over 85.4 µM; in the experiment with TK-10 renal, 30.7 µM.
For the molecule `COc1cc(OC)c2c(=O)c(O)c(-c3ccc(OC)c(OC)c3)oc2c1`, the TGI in the experiment with CAKI-1 renal is over 31.4 µM; in the experiment on SN12C renal it was over 100 µM; in the experiment on NCI-H23 lung, over 100 µM; with CCRF-CEM leukemia it was over 100 µM; with SNB-19 CNS it was over 100 µM; in the experiment on SF-295 CNS, 38.1 µM. Also, the TGI was over 31.6 µM with IGROV1 ovarian, over 31.6 µM with M14 melanoma, over 100 µM in the experiment on K-562 leukemia and over 100 µM in the experiment on TK-10 renal.
As for `CN1CCN(c2ccc3nc(-c4cc(C(C)(C)C)c(O)c(C(C)(C)C)c4)[nH]c3c2)CC1`, the GI50 in the experiment on CAKI-1 renal is 1.75 µM; in the experiment on SN12C renal, 4.64 µM; in the experiment on NCI-H23 lung, 3.31 µM; in the experiment on CCRF-CEM leukemia it was 2.22 µM; with SNB-19 CNS, 3.29 µM; with SF-295 CNS, 1.83 µM. In addition, the GI50 in the experiment on IGROV1 ovarian was 3.65 µM; in the experiment on M14 melanoma, 1.68 µM; in the experiment with K-562 leukemia, 1.94 µM; in the experiment on TK-10 renal it was 4.79 µM. Moreover, the TGI with CAKI-1 renal came to 3.49 µM; in the experiment with SN12C renal it was 16.5 µM; in the experiment with NCI-H23 lung, 10.3 µM; in the experiment with CCRF-CEM leukemia, 5.83 µM; in the experiment with SNB-19 CNS it was 12.4 µM; in the experiment on SF-295 CNS it was 3.66 µM. The TGI with IGROV1 ovarian amounted to 12.6 µM; in the experiment on M14 melanoma, 3.37 µM; with K-562 leukemia, 4.97 µM; in the experiment on TK-10 renal, 17.2 µM.
For `O=C1OC(c2ccc(O)c(-c3ccccc3)c2)(c2ccc(O)c(-c3ccccc3)c2)c2c(Cl)c(Cl)c(Cl)c(Cl)c21`, the TGI with CAKI-1 renal, with SN12C renal, with NCI-H23 lung, with CCRF-CEM leukemia, in the experiment on SNB-19 CNS and in the experiment with SF-295 CNS was over 100 µM each time. For the same molecule, the TGI with IGROV1 ovarian, in the experiment with M14 melanoma, in the experiment with K-562 leukemia and with TK-10 renal was over 100 µM each time.
As for `Cc1ccc(C)c(NC(=O)c2cc(-c3ccc([N+](=O)[O-])cc3)nc(N)n2)c1`, the TGI with CAKI-1 renal, in the experiment with SN12C renal, in the experiment with NCI-H23 lung, in the experiment on CCRF-CEM leukemia, with SNB-19 CNS and in the experiment with SF-295 CNS was over 100 µM in each case. Also, the TGI with IGROV1 ovarian, in the experiment on M14 melanoma, in the experiment with K-562 leukemia and with TK-10 renal was over 100 µM in each case.
As to `Cc1nn(C(=O)c2ccc(Cl)cc2)c2c1C(c1ccc([N+](=O)[O-])cc1)SC(N)=N2` (stereo not given), the TGI in the experiment on CAKI-1 renal, in the experiment on SN12C renal, in the experiment with NCI-H23 lung, in the experiment on CCRF-CEM leukemia, in the experiment with SNB-19 CNS and with SF-295 CNS was over 10 µM each time. Besides, the TGI in the experiment on IGROV1 ovarian, in the experiment with M14 melanoma, in the experiment on K-562 leukemia and in the experiment on TK-10 renal was over 10 µM each time.
Take `COC(OC)c1cccc2c1C1(O)CCC3(CC21)OCCCCO3` (stereo not given): the TGI in the experiment with CAKI-1 renal, with SN12C renal, in the experiment with NCI-H23 lung, in the experiment on CCRF-CEM leukemia, in the experiment with SNB-19 CNS and in the experiment with SF-295 CNS was over 100 µM throughout. Besides, the TGI in the experiment on IGROV1 ovarian, in the experiment on M14 melanoma, in the experiment with K-562 leukemia and in the experiment with TK-10 renal was over 100 µM throughout.
